Experiments:
Test in all cases: relative viability (nuclei count vs DMSO), 5 days (fraction); higher = more cells survive
[1] = test system: NCI-H2126
In short: (§1)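 One day after seeding in 1536-well plates, lung cancer cell lines were dosed by pin tool. Dosing was either single-drug or a fixed anchor-drug dose plus five library-drug doses (not always all listed) in √10 steps. After 5 days, nuclei were stained in one fix-and-stain step and counted on 4× images, and relative viability is the nuclei count of treated wells over that of vehicle wells, given as the median of duplicate plates.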

[2] = test system: NCI-H1395
In short: as §1

[3] = test system: NCI-H647
In short: as §1

[4] = test system: NCI-H2009
In short: as §1

[5] = test system: NCI-H1355
In short: as §1

[6] = test system: NCI-H650
In short: as §1

[7] = test system: LU99A
In short: as §1

[8] = test system: NCI-H322M
In short: as §1

[9] = test system: PC-14
In short: as §1

[10] = test system: BEN
In short: as §1

[11] = test system: HCC-15
In short: as §1

[12] = test system: NCI-H2228
In short: as §1

[13] = test system: NCI-H2405
In short: as §1

[14] = test system: NCI-H838
In short: as §1

[15] = test system: NCI-H661
In short: as §1

[16] = test system: NCI-H23
In short: as §1

[17] = test system: LCLC-97TM1
In short: as §1

[18] = test system: NCI-H2342
In short: as §1

[19] = test system: 201T
In short: as §1

[20] = test system: EPLC-272H
In short: as §1

[21] = test system: NCI-H460
In short: as §1

[22] = test system: NCI-H2085
In short: as §1

[23] = test system: HCC-78
In short: as §1

Cc1csc(=NC2CCCCC2)n1/N=C/c1ccc(O)c(O)c1O [MIM1] + O=C(CCCCCCC(=O)Nc1ccccc1)NO [Vorinostat] (partner 1 µM)
relative viability ([1]; first compound 0.2 µM): 0.745 | relative viability ([1]; first compound 0.6325 µM): 0.454 | relative viability ([1]; first compound 2 µM): 0.838 | relative viability ([1]; first compound 6.325 µM): 0.711 | relative viability ([1]; first compound 20 µM): 0.404 | relative viability ([2]; first compound 0.2 µM): 0.799 | relative viability ([2]; first compound 0.6325 µM): 0.626 | relative viability ([2]; first compound 2 µM): 0.641 | relative viability ([2]; first compound 6.325 µM): 0.422 | relative viability ([2]; first compound 20 µM): 0.322 | relative viability ([3]; first compound 0.2 µM): 0.655 | relative viability ([3]; first compound 0.6325 µM): 0.61 | relative viability ([3]; first compound 2 µM): 0.614 | relative viability ([3]; first compound 6.325 µM): 0.454 | relative viability ([3]; first compound 20 µM): 0.104 | relative viability ([4]; first compound 0.2 µM): 0.717 | relative viability ([4]; first compound 0.6325 µM): 0.713 | relative viability ([4]; first compound 2 µM): 0.685 | relative viability ([4]; first compound 6.325 µM): 0.506 | relative viability ([4]; first compound 20 µM): 0.372 | relative viability ([5]; first compound 0.2 µM): 0.673 | relative viability ([5]; first compound 0.6325 µM): 0.604 | relative viability ([5]; first compound 2 µM): 0.693 | relative viability ([5]; first compound 6.325 µM): 0.544 | relative viability ([5]; first compound 20 µM): 0.487 | relative viability ([6]; first compound 0.2 µM): 0.481 | relative viability ([6]; first compound 0.6325 µM): 0.257 | relative viability ([6]; first compound 2 µM): 0.402 | relative viability ([6]; first compound 6.325 µM): 0.414 | relative viability ([6]; first compound 20 µM): 0.116 | relative viability ([7]; first compound 0.2 µM): 0.515 | relative viability ([7]; first compound 0.6325 µM): 0.435 | relative viability ([7]; first compound 2 µM): 0.463 | relative viability ([7]; first compound 6.325 µM): 0.387 | relative viability ([7]; first compound 20 µM): 0.119 | relative viability ([8]; first compound 0.2 µM): 0.889 | relative viability ([8]; first compound 0.6325 µM): 0.917 | relative viability ([8]; first compound 2 µM): 0.789 | relative viability ([8]; first compound 6.325 µM): 0.733 | relative viability ([8]; first compound 20 µM): 0.418 | relative viability ([9]; first compound 0.2 µM): 0.746 | relative viability ([9]; first compound 0.6325 µM): 0.616 | relative viability ([9]; first compound 2 µM): 0.478 | relative viability ([9]; first compound 6.325 µM): 0.456 | relative viability ([9]; first compound 20 µM): 0.118 | relative viability ([10]; first compound 0.2 µM): 0.587 | relative viability ([10]; first compound 0.6325 µM): 0.546 | relative viability ([10]; first compound 2 µM): 0.562 | relative viability ([10]; first compound 6.325 µM): 0.511 | relative viability ([10]; first compound 20 µM): 0.394 | relative viability ([11]; first compound 0.2 µM): 0.789 | relative viability ([11]; first compound 0.6325 µM): 0.81 | relative viability ([11]; first compound 2 µM): 0.87 | relative viability ([11]; first compound 6.325 µM): 0.49 | relative viability ([11]; first compound 20 µM): 0.167 | relative viability ([12]; first compound 0.2 µM): 0.641 | relative viability ([12]; first compound 0.6325 µM): 0.909 | relative viability ([12]; first compound 2 µM): 0.589 | relative viability ([12]; first compound 6.325 µM): 0.19 | relative viability ([12]; first compound 20 µM): 0.206 | relative viability ([13]; first compound 0.2 µM): 1.01 | relative viability ([13]; first compound 0.6325 µM): 0.964 | relative viability ([13]; first compound 2 µM): 1.11 | relative viability ([13]; first compound 6.325 µM): 0.749 | relative viability ([13]; first compound 20 µM): 0.416 | relative viability ([14]; first compound 0.2 µM): 0.717 | relative viability ([14]; first compound 0.6325 µM): 0.747 | relative viability ([14]; first compound 2 µM): 0.675 | relative viability ([14]; first compound 6.325 µM): 0.413 | relative viability ([14]; first compound 20 µM): 0.197 | relative viability ([15]; first compound 0.2 µM): 0.764 | relative viability ([15]; first compound 0.6325 µM): 0.748 | relative viability ([15]; first compound 2 µM): 0.742 | relative viability ([15]; first compound 6.325 µM): 0.406 | relative viability ([15]; first compound 20 µM): 0.292 | relative viability ([16]; first compound 0.2 µM): 0.55 | relative viability ([16]; first compound 0.6325 µM): 0.277 | relative viability ([16]; first compound 2 µM): 0.478 | relative viability ([16]; first compound 6.325 µM): 0.19 | relative viability ([16]; first compound 20 µM): 0.123 | relative viability ([17]; first compound 0.2 µM): 0.594 | relative viability ([17]; first compound 0.6325 µM): 0.23 | relative viability ([17]; first compound 2 µM): 0.719 | relative viability ([17]; first compound 6.325 µM): 0.236 | relative viability ([17]; first compound 20 µM): 0.0643 | relative viability ([18]; first compound 0.2 µM): 0.727 | relative viability ([18]; first compound 0.6325 µM): 0.719 | relative viability ([18]; first compound 2 µM): 0.774 | relative viability ([18]; first compound 6.325 µM): 0.589 | relative viability ([18]; first compound 20 µM): 0.905 | relative viability ([19]; first compound 0.2 µM): 0.974 | relative viability ([19]; first compound 0.6325 µM): 0.952 | relative viability ([19]; first compound 2 µM): 0.935 | relative viability ([19]; first compound 6.325 µM): 0.528 | relative viability ([19]; first compound 20 µM): 0.3 | relative viability ([20]; first compound 0.2 µM): 0.509 | relative viability ([20]; first compound 0.6325 µM): 0.523 | relative viability ([20]; first compound 2 µM): 0.343 | relative viability ([20]; first compound 6.325 µM): 0.125 | relative viability ([20]; first compound 20 µM): 0.126 | relative viability ([21]; first compound 0.2 µM): 0.703 | relative viability ([21]; first compound 0.6325 µM): 0.746 | relative viability ([21]; first compound 2 µM): 0.411 | relative viability ([21]; first compound 6.325 µM): 0.117 | relative viability ([21]; first compound 20 µM): 0.0234 | relative viability ([22]; first compound 0.2 µM): 0.765 | relative viability ([22]; first compound 0.6325 µM): 0.728 | relative viability ([22]; first compound 2 µM): 0.763 | relative viability ([22]; first compound 6.325 µM): 0.547 | relative viability ([22]; first compound 20 µM): 0.563 | relative viability ([23]; first compound 0.2 µM): 0.452 | relative viability ([23]; first compound 2 µM): 0.38 | relative viability ([23]; first compound 6.325 µM): 0.424 | relative viability ([23]; first compound 20 µM): 0.438

— the supplement of paper PMC10307832
